Results reported in patent US11872224B2, “Amorphous solid dispersion formulation” (TaiGen Biotechnology Co., Ltd., priority 2020, dated 2024).
≈ marks a conversion by molar mass, not a printed value.

Assay: Dissolution assessment: solubility in FaSSIF
Format: physicochemical
Conditions: FaSSIF pH 6.5, 37° C., 600 rpm, target concentration 1.0 mg/mL
Method: An amount of Compound A (about 6 mg) and an amorphous solid dispersion (equivalent to around 6 mg Compound A) were weighed into separate 8 ml bottle, and 6 ml FaSSIF (Fasted state simulated intestinal fluid) was added (target concentration 1.0 mg/mL). The suspensions were stirred using a thermomixer at 37° C. under 600 rpm and 200 μL of suspensions were withdrawn at pre-set time intervals (such as 5 min) and then centrifuged at 14000 rpm for 4 min. Then, 100 μL of supernatant was diluted with 500 μL ACN (Acetonitrile) to prevent precipitation, and was analyzed by HPLC.
FaSSIF was prepared by following steps: 1) Place 0.1024 g sodium hydroxide, 0.7518 g sodium dihydrogen phosphate anhydrous and 1.5470 g sodium chloride in a 250 mL volumetric flask, add about 225 mL water, and adjust the pH to 6.5 with 1 N sodium hydroxide or 1N hydrochloric acid. Make up to volume (250 mL) with pure water. 2) Place and dissolve 0.4480 g SIF Powder Original with 100 mL of buffer (from step 1) in a 200 mL volumetric flask, add water to volume and mix well.

## COC(=O)OCOc1c2n(ccc1=O)N([C@H]1c3ccccc3CSc3c1ccc(F)c3F)CC1(CC1)C2=O [Sample 1, [1-((11S)-7,8-difluoro(6H,11H-dibenzo[c,f]thiepin-11-yl))-4,6-dioxospiro[1,2,3,9-tetrahydropyridino[1,2-e]pyridazine-3,1′-cyclopropane]-5-yloxy]methyl methoxyformate]
5 min
  Solubility 5 min: 4.95 µg/mL (≈ 9.16 µM)
15 min
  Solubility 15 min: 4.89 µg/mL (≈ 9.05 µM)
